In ChEMBL document CHEMBL4665653, “VU6005806/AZN-00016130, an advanced M positive allosteric modulator (PAM) profiled as a potential preclinical development candidate” (Bioorg Med Chem Lett, 2019):
Converted amounts (≈) assume the structure as drawn.

How the values were obtained:
[1] = Solubility of the compound in FaSSIF; type: physicochemical
[2] = biological target: Kappa-type opioid receptor (Homo sapiens) (UniProt P41145); experiment: Displacement of [3H]-Diprenorphine from recombinant full length human kappa opioid receptor expressed in HEK293 cells assessed as residual binding level for radioligand at 10 uM incubated for 60 mins by scintillation counting analysis relative to control; type: cell-based
Chain of Kappa-type opioid receptor (Homo sapiens) (P41145 whole entry): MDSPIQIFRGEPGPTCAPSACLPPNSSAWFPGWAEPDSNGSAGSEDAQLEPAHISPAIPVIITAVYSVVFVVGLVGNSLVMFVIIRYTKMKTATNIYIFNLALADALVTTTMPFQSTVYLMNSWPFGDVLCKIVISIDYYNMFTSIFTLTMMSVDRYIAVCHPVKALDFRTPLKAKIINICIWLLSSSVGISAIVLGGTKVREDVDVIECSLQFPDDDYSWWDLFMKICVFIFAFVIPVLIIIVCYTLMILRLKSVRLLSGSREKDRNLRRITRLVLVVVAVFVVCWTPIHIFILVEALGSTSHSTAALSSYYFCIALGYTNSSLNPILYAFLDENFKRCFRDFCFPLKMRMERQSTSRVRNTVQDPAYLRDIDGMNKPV

[3] = biological target: L-type calcium channel Cav1.2, dihydropyridine binding site (Rattus norvegicus, UniProt P22002); experiment: Displacement of [3H]-Nitrendipine from L-type calcium channel Cav1.2 dihydropyridine binding site in Wistar rat brain assessed as residual binding level for radioligand at 10 uM incubated for 90 mins by radiometric scintillation analysis relative to control; type: tissue-based; details: probe [3H]-Nitrendipine, read-out: Activity
Chain of L-type calcium channel Cav1.2, dihydropyridine binding site (P22002 whole entry): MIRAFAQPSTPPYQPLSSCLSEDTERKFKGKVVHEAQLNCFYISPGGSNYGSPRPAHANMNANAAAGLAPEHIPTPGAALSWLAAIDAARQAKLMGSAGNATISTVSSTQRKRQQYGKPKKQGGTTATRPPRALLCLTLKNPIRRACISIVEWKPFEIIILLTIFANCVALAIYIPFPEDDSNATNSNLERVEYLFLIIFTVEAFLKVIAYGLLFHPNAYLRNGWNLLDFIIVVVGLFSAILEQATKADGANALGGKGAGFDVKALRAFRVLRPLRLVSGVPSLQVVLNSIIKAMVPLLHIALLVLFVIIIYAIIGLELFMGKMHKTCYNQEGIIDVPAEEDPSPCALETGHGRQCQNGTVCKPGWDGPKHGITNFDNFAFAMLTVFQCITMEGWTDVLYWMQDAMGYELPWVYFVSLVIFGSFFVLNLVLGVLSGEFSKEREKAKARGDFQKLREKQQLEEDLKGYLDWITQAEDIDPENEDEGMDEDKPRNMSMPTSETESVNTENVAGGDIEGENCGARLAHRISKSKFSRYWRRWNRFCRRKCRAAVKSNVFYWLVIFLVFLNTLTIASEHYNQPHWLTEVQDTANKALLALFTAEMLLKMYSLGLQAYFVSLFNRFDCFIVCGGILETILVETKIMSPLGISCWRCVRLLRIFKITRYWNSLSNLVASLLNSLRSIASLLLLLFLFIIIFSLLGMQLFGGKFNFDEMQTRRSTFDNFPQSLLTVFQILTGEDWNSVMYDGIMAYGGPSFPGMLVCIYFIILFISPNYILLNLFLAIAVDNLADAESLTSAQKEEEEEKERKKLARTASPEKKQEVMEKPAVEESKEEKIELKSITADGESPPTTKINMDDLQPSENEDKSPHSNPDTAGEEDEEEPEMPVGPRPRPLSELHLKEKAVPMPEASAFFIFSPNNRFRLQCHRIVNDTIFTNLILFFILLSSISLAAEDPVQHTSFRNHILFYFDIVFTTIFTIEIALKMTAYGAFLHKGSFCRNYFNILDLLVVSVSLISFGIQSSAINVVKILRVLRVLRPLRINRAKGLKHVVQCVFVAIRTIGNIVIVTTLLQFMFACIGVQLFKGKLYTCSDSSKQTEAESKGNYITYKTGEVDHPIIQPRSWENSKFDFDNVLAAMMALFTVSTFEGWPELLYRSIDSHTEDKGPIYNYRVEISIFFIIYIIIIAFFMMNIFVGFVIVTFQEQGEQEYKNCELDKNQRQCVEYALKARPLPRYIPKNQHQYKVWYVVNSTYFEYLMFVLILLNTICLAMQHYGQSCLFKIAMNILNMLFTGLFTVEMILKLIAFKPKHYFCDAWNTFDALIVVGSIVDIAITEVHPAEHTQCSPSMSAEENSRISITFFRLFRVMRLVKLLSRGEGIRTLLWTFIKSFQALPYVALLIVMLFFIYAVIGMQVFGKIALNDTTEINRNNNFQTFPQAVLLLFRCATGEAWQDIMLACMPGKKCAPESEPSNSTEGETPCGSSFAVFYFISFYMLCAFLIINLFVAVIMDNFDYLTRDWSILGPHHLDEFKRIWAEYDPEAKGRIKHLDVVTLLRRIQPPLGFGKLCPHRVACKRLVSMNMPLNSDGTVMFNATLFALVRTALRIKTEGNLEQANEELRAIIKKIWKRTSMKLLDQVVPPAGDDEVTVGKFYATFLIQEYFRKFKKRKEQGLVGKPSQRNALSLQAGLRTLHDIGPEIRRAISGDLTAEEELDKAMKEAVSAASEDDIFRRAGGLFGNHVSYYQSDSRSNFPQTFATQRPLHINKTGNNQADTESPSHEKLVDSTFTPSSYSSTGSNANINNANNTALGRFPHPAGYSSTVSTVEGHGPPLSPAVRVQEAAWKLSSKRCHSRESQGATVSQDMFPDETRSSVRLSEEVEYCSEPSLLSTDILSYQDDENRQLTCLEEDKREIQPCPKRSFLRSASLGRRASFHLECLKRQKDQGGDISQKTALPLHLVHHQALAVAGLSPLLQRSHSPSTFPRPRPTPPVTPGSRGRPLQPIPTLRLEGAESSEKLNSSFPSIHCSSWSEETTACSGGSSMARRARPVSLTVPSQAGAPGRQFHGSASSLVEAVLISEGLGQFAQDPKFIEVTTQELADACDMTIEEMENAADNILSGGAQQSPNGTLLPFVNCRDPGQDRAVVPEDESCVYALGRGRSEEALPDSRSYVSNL

SMILES: COc1nnc2sc(C(=O)NC3CN(c4ncc(C(F)(F)F)cn4)C3)c(N)c2c1C
- solubility [1]: 18 µM (≈ 7.91 µg/mL)
- Activity [2]: > 50%
- activity at 1.5 h, 10 µM [3]: > 50%
